What was measured:
NCI-H2722 (Mesothelioma) = experiment: Bliss excess, mean over the matrix (fraction); higher = more synergy
Summary of the method: (§1)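 Cell lines grown in DMEM/F12 or RPMI with 10% FBS were plated in 1536-well plates and held 24 hours at 37°C, 5% CO2 before 72 hours of exposure to two-drug dose matrices, with DMSO typically at 0.2%. CellTiter-Glo 2.0 luminescence gave viability, which was converted to inhibition. Vehicle wells were set to 0 and blank wells to 1. Combination Emax is the second-highest inhibition in the matrix, and Bliss excess is the observed combination effect minus the expected EA + EB − EA·EB, where EA and EB are the single-agent effects.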

[1] = system: SNU-16 (Gastric Carcinoma); experiment: as above
Summary of the method: as §1

KS-1 (Glioblastoma) [2] = experiment: as above
Summary of the method: as §1

[3] = system: Detroit562 (Head and Neck Carcinoma); experiment: as above
Summary of the method: as §1

A673 (Ewing's Sarcoma) = experiment: as above
Summary of the method: as §1

[4] = system: HeLa (Cervical Carcinoma); experiment: as above
Summary of the method: as §1

[5] = system: LCLC-97TM1 (Non-Small Cell Lung Carcinoma); experiment: as above
Summary of the method: as §1

[6] = system: KYAE-1 (Esophageal Adenocarcinoma); experiment: as above
Summary of the method: as §1

[7] = system: NCI-H1568 (Lung Adenocarcinoma); experiment: as above
Summary of the method: as §1

[8] = system: BE-13 (T-Lymphoblastic Leukemia); experiment: as above
Summary of the method: as §1

BPH-1 (Non-Cancerous) = experiment: as above
Summary of the method: as §1

[9] = system: HuH-7 (Hepatocellular Carcinoma); experiment: as above
Summary of the method: as §1

[10] = system: SW1573 (Lung Adenocarcinoma); experiment: as above
Summary of the method: as §1

[11] = system: KMRC-20 (Kidney Carcinoma); experiment: as above
Summary of the method: as §1

CAL-72 (Osteosarcoma) = experiment: as above
Summary of the method: as §1

[12] = system: LS-123 (Colorectal Carcinoma); experiment: combination Emax (second highest fraction inhibited in the dose matrix, 72 h); higher = more inhibition; extreme values may be limits of the assay
Summary of the method: as §1

[13] = system: HH (T-Cell Non-Hodgkin's Lymphoma); experiment: as above
Summary of the method: as §1

KS-1 (Glioblastoma) [14] = experiment: as above
Summary of the method: as §1

[15] = system: OE21 (Esophageal Squamous Cell Carcinoma); experiment: as above
Summary of the method: as §1

[16] = system: LCLC-97TM1 (Non-Small Cell Lung Carcinoma); experiment: as above
Summary of the method: as §1
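For Bliss excess, mean over the matrix in this document: after 72 h of two-drug dosing.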

Row | SMILES | Bliss excess (NCI-H2722 (Mesothelioma)) | Bliss excess [1] | Bliss excess (KS-1 (Glioblastoma) [2]) | Bliss excess [3] | Bliss excess (A673 (Ewing's Sarcoma)) | Bliss excess [4] | Bliss excess [5] | Bliss excess [6] | Bliss excess [7] | Bliss excess [8] | Bliss excess (BPH-1 (Non-Cancerous)) | Bliss excess [9] | Bliss excess [10] | Bliss excess [11] | Bliss excess (CAL-72 (Osteosarcoma)) | combination Emax [12] | combination Emax [13] | combination Emax (KS-1 (Glioblastoma) [14]) | combination Emax [15] | combination Emax [16]
1 | Cn1cnc2c(F)c(Nc3ccc(Br)cc3Cl)c(C(=O)NOCCO)cc21 [Selumetinib] + CCN(CCO)CCCOc1ccc2c(Nc3cc(CC(=O)Nc4cccc(F)c4)[nH]n3)ncnc2c1 [AZD2811] (first compound max 10 µM, 7x7, partner max 1 µM) | -0.0834 | -0.0501 | -0.0324 | 0.0685 | -0.0233 | -0.0561 | 0.0594 | -0.0212 | -0.0612 | -0.0213 | 0.0204 | -0.0164 | -0.0605 | -0.059 | -0.0369 | 0.425 | 0.173 | 0.298 | 0.441 | 0.647
2 | CC(=O)c1c(C)c2cnc(Nc3ccc(N4CCNCC4)cn3)nc2n(C2CCCC2)c1=O [Palbociclib] + Cn1cnc2c(F)c(Nc3ccc(Br)cc3Cl)c(C(=O)NOCCO)cc21 [Selumetinib] (first compound max 10 µM, 7x7, partner max 10 µM) | -0.069 | 0.0339 | -0.0012 | -0.0041 | -0.009 | -0.0499 | 0.0728 | -0.0125 | -0.109 | -0.0003 | -0.0755 | -0.0584 | -0.0288 | -0.0534 | 0.0683 | 0.428 | 0.407 | 0.438 | 0.54 | 0.64
3 | COc1cccc(OCCCN)c1-c1cc(Nc2cnc(C#N)cn2)n[nH]1 [Prexasertib] + O=C(c1cc(Cc2n[nH]c(=O)c3ccccc23)ccc1F)N1CCN(C(=O)C2CC2)CC1 [Olaparib] (first compound max 1 µM, 7x7, partner max 10 µM) | -0.0088 | -0.0417 | -0.0439 | -0.0467 | -0.0452 | -0.0483 | -0.0381 | 0.0116 | -0.0593 | -0.0341 | 0.0266 | -0.0527 | 0.001 | -0.0735 | -0.135 | 0.771 | 0.542 | 0.628 | 0.678 | 0.936
4 | C=CCn1c(=O)c2cnc(Nc3ccc(N4CCN(C)CC4)cc3)nc2n1-c1cccc(C(C)(C)O)n1 [AZD1775] + C[C@@H]1COCCN1C2=NC(=NC(=C2)C3(CC3)[S@](=N)(=O)C)C4=C5C=CNC5=NC=C4 [AZD6738] (first compound max 1 µM, partner max 10 µM) | -0.0029 | -0.0002 | -0.0042 | -0.002 | 0.0115 | 0.0883 | -0.0323 | 0.026 | -0.0346 | 0.0159 | 0.0614 | 0.0027 | 0.0334 | 0.0174 | -0.0277 | 0.892 | 0.583 | 0.66 | 0.746 | 0.891
5 | CCc1c2c(nc3ccc(O)cc13)-c1cc3c(c(=O)n1C2)COC(=O)[C@]3(O)CC [SN-38] + CN(C)CCCOc1ccc(-c2ccc3ncc4c(c3c2)n(C2CCOCC2)c(=O)n4C)cn1 [AZD0156] (first compound max 0.3 µM, 7x7, partner max 1 µM) | -0.0318 | 0.107 | -0.0369 | 0.118 | 0.0777 | 0.0255 | -0.0059 | -0.0188 | -0.0078 | -0.103 | 0.0463 | 0 | 0.0139 | -0.0156 | 0.0114 | 0.481 | 0.0821 | 0.464 | 0.678 | 0.693
6 | Cn1cnc2c(F)c(Nc3ccc(Br)cc3Cl)c(C(=O)NOCCO)cc21 [Selumetinib] + C=CCn1c(=O)c2cnc(Nc3ccc(N4CCN(C)CC4)cc3)nc2n1-c1cccc(C(C)(C)O)n1 [AZD1775] (first compound max 10 µM, partner max 1 µM) | -0.046 | 0.0433 | -0.0037 | 0.0123 | -0.0806 | -0.0826 | -0.0335 | -0.0019 | -0.0331 | -0.0423 | 0.0209 | -0.0509 | -0.0582 | -0.0682 | -0.117 | 0.542 | 0.0977 | 0.277 | 0.683 | 0.87
7 | CN(CCO)CC[C@H](CSc1ccccc1)Nc1ccc(S(=O)(=O)NC(=O)c2ccc(N3CCC([C@@H](O)c4ccccc4-c4ccc(Cl)cc4)CC3)cc2)cc1S(=O)(=O)C(F)(F)F [AZD4320] + Cn1cnc2c(F)c(Nc3ccc(Br)cc3Cl)c(C(=O)NOCCO)cc21 [Selumetinib] (first compound max 1 µM, 7x7, partner max 3 µM) | -0.011 | -0.0054 | -0.0051 | 0.072 | 0.0944 | -0.0092 | 0.0523 | -0.0146 | -0.0035 | -0.0017 | 0.0021 | 0.0069 | 0.0119 | 0.0022 | -0.0089 | – | 0.3 | 0.341 | 0.413 | 0.489
8 | CN(C)CCCOc1ccc(-c2ccc3ncc4c(c3c2)n(C2CCOCC2)c(=O)n4C)cn1 [AZD0156] + O=C(c1cc(Cc2n[nH]c(=O)c3ccccc23)ccc1F)N1CCN(C(=O)C2CC2)CC1 [Olaparib] (first compound max 3 µM, partner max 3 µM) | -0.017 | – | 0.0259 | 0.058 | 0.16 | -0.0057 | -0.0124 | 0.0247 | 0.0101 | 0.0894 | 0.158 | -0.0107 | -0.0002 | 0.0163 | 0.0475 | 0.37 | 0.038 | 0.197 | 0.283 | 0.109
9 | CN(CCO)CC[C@H](CSc1ccccc1)Nc1ccc(S(=O)(=O)NC(=O)c2ccc(N3CCC([C@@H](O)c4ccccc4-c4ccc(Cl)cc4)CC3)cc2)cc1S(=O)(=O)C(F)(F)F [AZD4320] + CN(C)CCCOc1ccc(-c2ccc3ncc4c(c3c2)n(C2CCOCC2)c(=O)n4C)cn1 [AZD0156] (first compound max 1 µM, 7x7, partner max 1 µM) | -0.0276 | -0.0207 | -0.0136 | -0.0332 | 0.0419 | -0.0321 | -0.0244 | -0.0114 | -0.0099 | -0.0325 | -0.0216 | -0.0129 | -0.0585 | -0.0377 | -0.0292 | – | 0.274 | 0.239 | 0.158 | 0.107
10 | CN(CCO)CC[C@H](CSc1ccccc1)Nc1ccc(S(=O)(=O)NC(=O)c2ccc(N3CCC([C@@H](O)c4ccccc4-c4ccc(Cl)cc4)CC3)cc2)cc1S(=O)(=O)C(F)(F)F [AZD4320] + C1CN(CCC1(C(=O)N[C@@H](CCO)C2=CC=C(C=C2)Cl)N)C3=NC=NC4=C3C=CN4 [Capivasertib] (first compound max 1 µM, 7x7, partner max 3 µM) | -0.081 | 0.0015 | -0.0435 | -0.0535 | 0.0099 | -0.0377 | -0.0048 | -0.031 | -0.0518 | -0.0175 | -0.0496 | -0.0402 | -0.0614 | -0.0546 | -0.0184 | – | 0.417 | 0.296 | 0.441 | 0.335
11 | CN(CCO)CC[C@H](CSc1ccccc1)Nc1ccc(S(=O)(=O)NC(=O)c2ccc(N3CCC([C@@H](O)c4ccccc4-c4ccc(Cl)cc4)CC3)cc2)cc1S(=O)(=O)C(F)(F)F [AZD4320] + C=CCn1c(=O)c2cnc(Nc3ccc(N4CCN(C)CC4)cc3)nc2n1-c1cccc(C(C)(C)O)n1 [AZD1775] (first compound max 1 µM, partner max 1 µM) | 0.042 | 0.0049 | 0.0327 | -0.0067 | 0.082 | -0.0523 | 0.0015 | 0.032 | 0.0492 | 0.046 | 0.0378 | 0.0346 | 0.0152 | 0.0331 | 0.0392 | – | 0.802 | 0.549 | 0.641 | 0.933
12 | C=CCn1c(=O)c2cnc(Nc3ccc(N4CCN(C)CC4)cc3)nc2n1-c1cccc(C(C)(C)O)n1 [AZD1775] + C1CN(CCC1(C(=O)N[C@@H](CCO)C2=CC=C(C=C2)Cl)N)C3=NC=NC4=C3C=CN4 [Capivasertib] (first compound max 3 µM, partner max 3 µM) | -0.0603 | – | -0.0126 | 0.0209 | 0.018 | -0.0168 | -0.0545 | -0.0284 | -0.0572 | -0.0508 | -0.0371 | 0.0263 | -0.0229 | -0.0646 | 0.0259 | 0.636 | 0.567 | 0.589 | 0.747 | 0.793

Reference: the supplement of paper PMC11061612
